Assay results from ChEMBL document CHEMBL1201862, “PubChem BioAssay data set” (2004).
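Assay format: 96-well plates, 48-hour exposure. GI50: concentration for 50% inhibition of growth.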 Active and inactive are the calls of the source. Cut-off read from the data, not from the text of the source: active = GI50 up to about 1.1 µM and inactive = higher.

How the values were obtained:
Assay in all cases: NCI-60 cell line screen, 48 h
XF498 = tested on: XF498
SNB-78 = tested on: SNB-78
RXF 631 = tested on: RXF 631
DMS-273 = tested on: DMS-273
DLD-1 = tested on: DLD-1
T47D = tested on: T47D
Hs-578T = tested on: Hs-578T
MDA-N = tested on: MDA-N
BT-549 = tested on: BT-549

Measured: GI50

CCO/N=[N+](\[O-])N(CC)CC
inactive: XF498 > 100 µM | SNB-78 > 100 µM | RXF 631 > 100 µM | DMS-273 > 100 µM

C=C1C(=O)O[C@H]2C1[C@H](OC(=O)/C(C)=C\COC(C)=O)C[C@]1(CO1)[C@@H]1[C@H](O)[C@H]3O[C@@]3(C)[C@@H]12 (stereo partly specified)
inactive: XF498 19.3 µM | SNB-78 25.9 µM | DLD-1 12.2 µM | DMS-273 26.3 µM

O=C(N/N=C(\c1nc2ccc(Cl)cc2nc1O)C(O)c1ccccc1Cl)c1ccncc1 (stereo unspecified)
inactive: RXF 631 > 100 µM | DLD-1 > 100 µM | DMS-273 > 100 µM

BrC/C=C/C[P+](c1ccccc1)(c1ccccc1)c1ccccc1
inactive: XF498 11.1 µM | SNB-78 21 µM | RXF 631 > 100 µM | DMS-273 2.44 µM

CCCN(CCCCC(NC(C)=O)C(=O)NCc1ccccc1)C(=O)NC (stereo unspecified)
inactive: XF498 > 100 µM | SNB-78 > 100 µM | RXF 631 > 100 µM | DLD-1 > 100 µM | DMS-273 > 100 µM

CC(=O)NC1=C(NC(C)(C)C)C(=O)c2ccccc2C1=O
inactive: XF498 11.1 µM | SNB-78 31 µM | DLD-1 15.9 µM | DMS-273 26.1 µM

Cc1cccc(-n2c(=S)[nH]c3c(sc(=O)n3-c3ccccc3C)c2=O)c1
inactive: SNB-78 > 100 µM | RXF 631 > 100 µM | DLD-1 > 100 µM | DMS-273 > 100 µM

CN(C)CCC1(C2=CCCC2)CC/C(=C\c2ccccc2Cl)C1=O (stereo unspecified)
inactive: SNB-78 12.4 µM | RXF 631 6.07 µM | DLD-1 15.2 µM

C=C1C(=O)OC2/C=C(\C)CC(O)/C=C(/CO)CC(OC(=O)/C(C)=C/C)C12 (stereo unspecified)
inactive: XF498 12.2 µM | SNB-78 49.4 µM | DLD-1 26.8 µM | DMS-273 24 µM

COc1ccc(/C(Cl)=C(\C=O)c2ccc(Cl)cc2)cc1OC
inactive: SNB-78 5.82 µM | RXF 631 3.69 µM | DLD-1 5.12 µM | DMS-273 3.72 µM

Cc1nc(-c2cccnc2)sc1C(=O)/C=C/c1cccc([N+](=O)[O-])c1
inactive: RXF 631 > 100 µM | DLD-1 > 100 µM | DMS-273 > 100 µM

O=c1[nH]cnc2[nH]nnc12
inactive: XF498 7.5 µM | SNB-78 6.3 µM | DMS-273 6 µM

O=C(CC(=O)c1ccc([N+](=O)[O-])cc1)C(=O)Nc1nccs1
inactive: XF498 > 100 µM | SNB-78 > 100 µM | RXF 631 > 100 µM | DLD-1 > 100 µM | DMS-273 > 100 µM

COC(=O)/C(=N/NC(C)(C)C)C(C(=O)OC)C(=O)C(=O)Nc1nc2ccc([N+](=O)[O-])cc2s1 (stereo unspecified)
inactive: XF498 > 100 µM | SNB-78 > 100 µM

O=C(Nc1ccc(Cl)cc1Cl)c1c/c(=N\O)c2ccc(O)cc2o1
inactive: SNB-78 > 100 µM | RXF 631 > 100 µM | DLD-1 > 100 µM

COc1cc(OC)c([C@@H]2OC(=O)C3C2C(=O)O[C@H]3c2cc(OC)c(OC)cc2OC)cc1OC (stereo partly specified)
inactive: XF498 > 100 µM | SNB-78 > 100 µM | DLD-1 > 100 µM | DMS-273 > 100 µM

C/C(=N\Nc1ccccc1)C(CN(C)C)C(c1ccccc1)c1c(O)c2ccccc2oc1=O (stereo unspecified)
inactive: T47D 89.3 µM | Hs-578T > 100 µM | RXF 631 > 100 µM | MDA-N > 100 µM | BT-549 > 100 µM

CC(=O)/C=C\C(=O)NNS(=O)(=O)c1ccc(C)cc1
inactive: XF498 > 100 µM | SNB-78 > 100 µM | RXF 631 > 100 µM | DLD-1 > 100 µM | DMS-273 > 100 µM

O=C(Nc1ccc(C(F)(F)F)cc1[N+](=O)[O-])C(=O)Nn1c(S)nc2ccccc2c1=O
inactive: XF498 > 100 µM | SNB-78 > 100 µM | RXF 631 > 100 µM | DLD-1 > 100 µM | DMS-273 > 100 µM

C=CCCC(OCOCCOC)c1cc(C)c(O[Si](C)(C)C(C)(C)C)c(C)c1 (stereo unspecified)
inactive: SNB-78 > 100 µM | RXF 631 15.4 µM

CCC/C(=N\NC(=O)c1cc2ccccc2cc1O)C(CC)C(=O)CCC(=O)N(Cc1ccccc1)Cc1ccccc1 (stereo unspecified)
inactive: SNB-78 > 100 µM | RXF 631 38.1 µM | DLD-1 58.1 µM | DMS-273 18.2 µM

COC(=O)C(C#N)C1NC(=O)c2ccccc21 (stereo unspecified)
inactive: SNB-78 > 100 µM | RXF 631 > 100 µM | DLD-1 > 100 µM | DMS-273 > 100 µM

CN(C)CC1(C)CC/C(=C\c2ccc(Cl)cc2)C1=O (stereo unspecified)
inactive: XF498 78.9 µM | SNB-78 40.8 µM | DLD-1 29.2 µM | DMS-273 20.7 µM

O=c1cc(-c2ccccc2)oc2cc(OCCCOc3ccc4c(=O)cc(-c5ccccc5)oc4c3)ccc12
inactive: XF498 > 100 µM | SNB-78 > 100 µM | DLD-1 > 100 µM | DMS-273 > 100 µM

C=C1C(OC(C)=O)CC(OC(C)=O)C2(C)C(OC(C)=O)C(OC(C)=O)C3=C(C)C(OC(=O)/C=C/c4ccccc4)CC(C(OC(C)=O)C12)C3(C)C (stereo unspecified)
inactive: SNB-78 38.8 µM | RXF 631 51.2 µM | DLD-1 > 100 µM | DMS-273 > 100 µM
